Data reported in the supplement of paper PMC11451515.

Key:
Conditions in all cases: 48 h
[1] = system: SEM cells; experiment: cell viability relative to DMSO control; higher = less cytotoxic
Method in brief: (§1)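 Viability was expressed as a per-plate percentage of DMSO wells, with cell-free wells as background. Leukemia cells (NOMO1 or SEM at 500 cells/well, P12-Ichikawa at 1000 cells/well) were adapted for at least four passages in each medium and seeded in 1536-well plates (5 μl). Library compounds in DMSO were pin-dosed over an 11-point threefold series from 47 μM to 0.79 nM, and CellTiter-Glo One luminescence was read after 48 h at 37°C.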

[2] = system: P12-Ichikawa; experiment: as above
Method in brief: as §1

[3] = system: NOMO1; experiment: as above
Method in brief: as §1

[4] = system: P12-Ichikawa; experiment: AUC of viability dose-response curve (% viability x log10 dose units); higher = less sensitive
Method in brief: (§2)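 Area under the curve was integrated by trapezoidal rule from a log-logistic fit of normalised viability, with curves exceeding full viability scaled and quality-control failures removed. The fit had four parameters over log10 doses. Viability came from CellTiter-Glo One luminescence, normalised per plate to DMSO and cell-free wells, after leukemia cells adapted to each medium (500 or 1000 cells/well, 1536-well plates) were exposed to library compounds in DMSO for 48 h at 37°C. The 11 threefold doses ran from 47 μM to 0.79 nM.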

[5] = system: NOMO1; experiment: as above
Method in brief: as §2

Cc1cccc(Nc2nc(N[C@@H]3CCCC[C@@H]3N)ncc2C(N)=O)c1
cell viability [%]
Conditions	[1]	[2]	[3]
HPLM + 10% dialyzed FBS, 0.000781 µM	109	110	119
HPLM + 10% dialyzed FBS, 0.00234 µM	107	113	109
HPLM + 10% dialyzed FBS, 0.00702 µM	112	121	119
HPLM + 10% dialyzed FBS, 0.0211 µM	104	117	115
HPLM + 10% dialyzed FBS, 0.0632 µM	107	119	115
HPLM + 10% dialyzed FBS, 0.19 µM	118	116	126
HPLM + 10% dialyzed FBS, 0.569 µM	114	114	110
HPLM + 10% dialyzed FBS, 1.71 µM	88.6	30.9	80.9
HPLM + 10% dialyzed FBS, 5.12 µM	44	11	77.4
HPLM + 10% dialyzed FBS, 15.4 µM	30.9	10.8	85.5
HPLM + 10% dialyzed FBS, 46.1 µM	32.3	14.5	83
RPMI 5 mM glucose + 10% FBS, 0.000781 µM	66.2	120	96.1
RPMI 5 mM glucose + 10% FBS, 0.00234 µM	80.1	107	106
RPMI 5 mM glucose + 10% FBS, 0.00702 µM	78	110	114
RPMI 5 mM glucose + 10% FBS, 0.0211 µM	79.7	102	117
RPMI 5 mM glucose + 10% FBS, 0.0632 µM	69.8	117	129
RPMI 5 mM glucose + 10% FBS, 0.19 µM	89.4	97.9	109
RPMI 5 mM glucose + 10% FBS, 0.569 µM	87.1	107	113
RPMI 5 mM glucose + 10% FBS, 1.71 µM	74.2	103	99.1
RPMI 5 mM glucose + 10% FBS, 5.12 µM	33.8	35.1	58.7
RPMI 5 mM glucose + 10% FBS, 15.4 µM	11.5	13.7	56
RPMI 5 mM glucose + 10% FBS, 46.1 µM	14.5	14.7	51.5
RPMI 5 mM glucose + 10% dialyzed FBS, 0.000781 µM	95.7	103	101
RPMI 5 mM glucose + 10% dialyzed FBS, 0.00234 µM	126	108	99.2
RPMI 5 mM glucose + 10% dialyzed FBS, 0.00702 µM	104	123	109
RPMI 5 mM glucose + 10% dialyzed FBS, 0.0211 µM	112	123	107
RPMI 5 mM glucose + 10% dialyzed FBS, 0.0632 µM	103	121	119
RPMI 5 mM glucose + 10% dialyzed FBS, 0.19 µM	114	127	115
RPMI 5 mM glucose + 10% dialyzed FBS, 0.569 µM	96.2	125	108
RPMI 5 mM glucose + 10% dialyzed FBS, 1.71 µM	81.1	80.5	82.4
RPMI 5 mM glucose + 10% dialyzed FBS, 5.12 µM	25.6	24.3	55.5
RPMI 5 mM glucose + 10% dialyzed FBS, 15.4 µM	23.3	23.3	58.6
RPMI 5 mM glucose + 10% dialyzed FBS, 46.1 µM	25	27.5	56.8

AUC of viability dose-response curve
Conditions	HPLM + 10% dialyzed FBS	RPMI 5 mM glucose + 10% FBS	RPMI 5 mM glucose + 10% dialyzed FBS
[4]	334	380	368
[5]	424	411	409

O=P1(NCCCl)OCCCN1CCCl (configuration not stated)
cell viability [%]
Conditions	[1]	[2]	[3]
HPLM + 10% dialyzed FBS, 0.000781 µM	88.9	84	90.5
HPLM + 10% dialyzed FBS, 0.00234 µM	85.6	94	102
HPLM + 10% dialyzed FBS, 0.00702 µM	92.8	88.4	96.8
HPLM + 10% dialyzed FBS, 0.0211 µM	101	91.6	104
HPLM + 10% dialyzed FBS, 0.0632 µM	76.1	92.9	97.7
HPLM + 10% dialyzed FBS, 0.19 µM	81.2	88.1	84.6
HPLM + 10% dialyzed FBS, 0.569 µM	78	95.1	119
HPLM + 10% dialyzed FBS, 1.71 µM	84.7	93.9	117
HPLM + 10% dialyzed FBS, 5.12 µM	81.3	91.8	99.7
HPLM + 10% dialyzed FBS, 15.4 µM	63	62.5	109
HPLM + 10% dialyzed FBS, 46.1 µM	12.5	94.2	76.1
RPMI 5 mM glucose + 10% FBS, 0.000781 µM	92.6	82.8	82.3
RPMI 5 mM glucose + 10% FBS, 0.00234 µM	99.5	76.7	88
RPMI 5 mM glucose + 10% FBS, 0.00702 µM	101	81.5	79.4
RPMI 5 mM glucose + 10% FBS, 0.0211 µM	103	85.6	77.2
RPMI 5 mM glucose + 10% FBS, 0.0632 µM	96.8	88.8	77
RPMI 5 mM glucose + 10% FBS, 0.19 µM	94.4	86.7	89.2
RPMI 5 mM glucose + 10% FBS, 0.569 µM	97.1	87.9	83.5
RPMI 5 mM glucose + 10% FBS, 1.71 µM	94.2	86.1	86.8
RPMI 5 mM glucose + 10% FBS, 5.12 µM	105	92	91.1
RPMI 5 mM glucose + 10% FBS, 15.4 µM	57.3	93.2	76.8
RPMI 5 mM glucose + 10% FBS, 46.1 µM	7.96	66.7	79.4
RPMI 5 mM glucose + 10% dialyzed FBS, 0.000781 µM	87.6	77	86.9
RPMI 5 mM glucose + 10% dialyzed FBS, 0.00234 µM	86	77.2	87.6
RPMI 5 mM glucose + 10% dialyzed FBS, 0.00702 µM	94.8	75.3	81.1
RPMI 5 mM glucose + 10% dialyzed FBS, 0.0211 µM	81.9	78.1	85.3
RPMI 5 mM glucose + 10% dialyzed FBS, 0.0632 µM	65.5	84.8	85.6
RPMI 5 mM glucose + 10% dialyzed FBS, 0.19 µM	69.1	82.7	87.9
RPMI 5 mM glucose + 10% dialyzed FBS, 0.569 µM	60.6	85.9	87.4
RPMI 5 mM glucose + 10% dialyzed FBS, 1.71 µM	69.5	85.2	97.5
RPMI 5 mM glucose + 10% dialyzed FBS, 5.12 µM	66.4	87.2	84.6
RPMI 5 mM glucose + 10% dialyzed FBS, 15.4 µM	45	87	98.5
RPMI 5 mM glucose + 10% dialyzed FBS, 46.1 µM	10.8	79.8	78.1

[4]
Conditions	AUC of viability dose-response curve
HPLM + 10% dialyzed FBS	424
RPMI 5 mM glucose + 10% FBS	402
RPMI 5 mM glucose + 10% dialyzed FBS	391

COC1=C(CC=C(C)C)C2=C(\C=C/C(=O)O2)C=C1
cell viability [%]
Conditions	[1]	[2]	[3]
HPLM + 10% dialyzed FBS, 0.000781 µM	83.3	84.2	101
HPLM + 10% dialyzed FBS, 0.00234 µM	79.7	109	107
HPLM + 10% dialyzed FBS, 0.00702 µM	80.4	126	125
HPLM + 10% dialyzed FBS, 0.0211 µM	89.5	121	110
HPLM + 10% dialyzed FBS, 0.0632 µM	76.9	110	119
HPLM + 10% dialyzed FBS, 0.19 µM	90.1	114	114
HPLM + 10% dialyzed FBS, 0.569 µM	74.6	97.7	117
HPLM + 10% dialyzed FBS, 1.71 µM	98.6	87.5	120
HPLM + 10% dialyzed FBS, 5.12 µM	71.8	69.8	102
HPLM + 10% dialyzed FBS, 15.4 µM	71.1	65.7	113
HPLM + 10% dialyzed FBS, 46.1 µM	58.5	58.8	81.8
RPMI 5 mM glucose + 10% FBS, 0.000781 µM	93.2	96.9	114
RPMI 5 mM glucose + 10% FBS, 0.00234 µM	103	96.6	117
RPMI 5 mM glucose + 10% FBS, 0.00702 µM	95.4	116	120
RPMI 5 mM glucose + 10% FBS, 0.0211 µM	117	116	116
RPMI 5 mM glucose + 10% FBS, 0.0632 µM	102	106	104
RPMI 5 mM glucose + 10% FBS, 0.19 µM	112	104	123
RPMI 5 mM glucose + 10% FBS, 0.569 µM	100	107	104
RPMI 5 mM glucose + 10% FBS, 1.71 µM	81.4	105	108
RPMI 5 mM glucose + 10% FBS, 5.12 µM	77.5	80.1	108
RPMI 5 mM glucose + 10% FBS, 15.4 µM	65.9	81.9	114
RPMI 5 mM glucose + 10% FBS, 46.1 µM	53.6	54.7	97.9
RPMI 5 mM glucose + 10% dialyzed FBS, 0.000781 µM	108	101	116
RPMI 5 mM glucose + 10% dialyzed FBS, 0.00234 µM	118	123	116
RPMI 5 mM glucose + 10% dialyzed FBS, 0.00702 µM	121	109	117
RPMI 5 mM glucose + 10% dialyzed FBS, 0.0211 µM	103	112	105
RPMI 5 mM glucose + 10% dialyzed FBS, 0.0632 µM	99.7	112	108
RPMI 5 mM glucose + 10% dialyzed FBS, 0.19 µM	113	109	116
RPMI 5 mM glucose + 10% dialyzed FBS, 0.569 µM	115	98.1	120
RPMI 5 mM glucose + 10% dialyzed FBS, 1.71 µM	91.8	92.4	113
RPMI 5 mM glucose + 10% dialyzed FBS, 5.12 µM	85	75.2	98.7
RPMI 5 mM glucose + 10% dialyzed FBS, 15.4 µM	90.2	76.3	104
RPMI 5 mM glucose + 10% dialyzed FBS, 46.1 µM	54.2	55.7	85.2

AUC of viability dose-response curve
Conditions	HPLM + 10% dialyzed FBS	RPMI 5 mM glucose + 10% FBS	RPMI 5 mM glucose + 10% dialyzed FBS
[4]	413	439	416
[5]	470	455	460
